The subject of assay [1] is oxidoreductase according to the invention. As to the kind of experiment: Substrate spectrum (relative enzyme activity with different substrates). Type of assay: biochemical, Pichia capsulata. The settings on record: activity with ethyl-4-chloroacetoacetate = 100%. The method, then:
Incubation lasted for about 2 to 3 min, thereupon 100 μl of a substrate solution (100 mM ethyl-4-chloro-3-oxobutanoate were added.
The substrate spectrum of the oxidoreductase according to the invention was determined by measuring the enzyme activity with a number of ketones, oxoacids and esters thereof. […] The activity with ethyl-4-chloroacetoacetate was equalled to 100% and all the other substrates were set in relation thereto.

Assay [2] has the same test system. As to the kind of experiment: Enantiomeric excess of the alcohol formed from selected substrates (GC). The settings on record: 24 h. It is filed as biochemical, Pichia capsulata. The method, then: For the determination of the ee-value, the following reaction batch was used for selected substrates.
The batches for ee-determination were extracted with chloroform after 24 h and the enantiomeric excess of the resulting alcohol was determined via GC.

Assay [3] has as its system recombinant oxidoreductase from Pichia capsulata. Briefly: Preparative conversions with recombinant oxidoreductase. It is filed as biochemical. The settings on record: for share of the substrate used that was reduced: after 24 h at room temperature, isopropanol as cosubstrate, NAD; for enantiomeric excess of the recovered product: preparative batch, 24 h at room temperature. The method, then: For the preparative batch, a mixture of […] of a buffer (100 mM TEA, pH=7, 1 mM ZnCl2, 10% glycerol), 4 1 isopropanol, 4 1 4-chloroacetoacetate, 4 g NAD and 3.6 million U of recombinant oxidoreductase from Pichia capsulata was incubated for 24 h at room temperature under constant mixing. […] Subsequently, the reaction mixture was extracted with ethyl acetate, the solvent was removed by means of a rotary evaporator and the raw product was distilled.
For the preparative batch, a mixture of 164 ml of a buffer (100 mM TEA, pH=7, 1 mM ZnCl2, 20% glycerol), 16 ml isopropanol, 20 g 2-chloro-1-(3-chlorophenyl)ethane-1-one dissolved in 20 ml methyl tert-butyl ether (MTBE), 10 mg NAD and 20,000 U of recombinant oxidoreductase from Pichia capsulata was incubated for 24 h at room temperature under constant mixing. […] Subsequently, the reaction mixture was extracted with ethyl acetate, and the solvent was removed using the rotary evaporator.

As for `CC(=O)c1ccccc1` [Acetophenone], the Relative activity % in assay [1] was found to be 4%.

For `CCOC(=O)C(C)=O` [Ethyl pyruvate], the Relative activity % in assay [1] worked out at 10%. For the same compound, in assay [2] (S-alcohol in excess), the Stereoselectivity was 100% S.

Consider `CCC(C)=O` [2-Butanone], for which the Relative activity % in assay [1] was 99%. The Stereoselectivity in assay [2] (S-alcohol in excess) came out at 50% S.

As for `CCCCCCC(C)=O` [2-Octanone], the Relative activity % in assay [1] came to 88%. Also, the Stereoselectivity in assay [2] (S-alcohol in excess) is 100% S.

As for `COC(=O)CC(C)=O` [Methyl acetoacetate], the Relative activity % in assay [1] worked out at 150%. The Stereoselectivity in assay [2] (S-alcohol in excess) turned out to be 97% S.

Turning to `O=C(O)C(=O)Cc1ccccc1` [2-Oxo-3-phenyl propionic acid], the Relative activity % in assay [1] amounted to 0%.

For `CCOC(=O)C(=O)CCc1ccccc1` [Ethyl-2-oxo-4-phenylbutanoic acid], the Relative activity % in assay [1] is 76%. In assay [2] (S-alcohol in excess), this compound had a Stereoselectivity of 95% S.

As to `CCOC(=O)CC(C)=O` [Ethyl acetoacetate], the Relative activity % in assay [1] worked out at 100%. In addition, in assay [2] (S-alcohol in excess), the Stereoselectivity is given as 99% S.

Consider `O=C(CCl)c1cccc(Cl)c1` [2-Chloro-1-(3-chlorophenyl)ethane-1-one], for which the Relative activity % in assay [1] stood at 21%. Besides, in assay [2] (R-alcohol in excess), the Stereoselectivity is 100% R. In assay [3], the “share of the substrate used that was reduced” value is on record as 96%.

In the case of `CCOC(=O)CCCCC(=O)CCCl` [Ethyl-8-chloro-6-oxooctanoic acid], the Relative activity % in assay [1] stood at 20%. In assay [2] (R-alcohol in excess), the Stereoselectivity is listed as 100% R.

Regarding `CCCCCCCC(=O)c1ccccc1` [Caprylophenone], in assay [1], the Relative activity % came to 0%.

For the compound `CCCC(=O)C(=O)OCC` [Ethyl-2-oxovaleriate], the Relative activity % in assay [1] was determined as 41%. For the same compound, in assay [2] (S-alcohol in excess), the Stereoselectivity was 97% S.

For `CCCCCC(=O)CC` [3-Octanone], the Relative activity % in assay [1] was 30%.

In the case of `CC(=O)CCO` [4-Hydroxy-2-butanone], the Relative activity % in assay [1] is 99%. In assay [2] (S-alcohol in excess), the Stereoselectivity is on record as 90% S.

For the compound `CCC(=O)C(=O)O` [2-Oxobutanoic acid], in assay [1], the Relative activity % amounted to 0%.

Turning to `CCOC(=O)CC(=O)CC` [Ethyl-3 oxovaleriate], the Relative activity % in assay [1] is listed as 67%.

`CCOC(=O)C[C@@H](O)CCl` [ethyl-(R)-4-chloro-3-hydroxybutanoate]: the “enantiomeric excess of the recovered product” value in assay [3] is recorded as 99%.

`CCOC(=O)C(=O)c1ccccc1` [Ethyl phenyl glyoxylate]: in assay [1], the Relative activity % is 5.2%. Also, in assay [2] (R-alcohol in excess), the Stereoselectivity is listed as 100% R.

Take `COC(=O)CCCCC(=O)CC(=O)OC` [Dimethyl-3-oxo-1,8-octandioic acid]: the Relative activity % in assay [1] is on record as 3.5%.

`CC(=O)Cc1ccccc1` [1-Phenyl-2-propanone]: the Relative activity % in assay [1] came to 24%. The compound further came in with a Stereoselectivity in assay [2] (S-alcohol in excess) of 97% S.

Consider `CCCC(=O)C(=O)O` [2-Oxovaleric acid], for which the Relative activity % in assay [1] came out at 0%.

As for `CCOC(=O)CC(=O)CCl` [Ethyl-4-chloroacetoacetate], in assay [1], the Relative activity % worked out at 100%. Besides, in assay [2] (R-alcohol in excess), the Stereoselectivity amounted to 99% R. Besides, the “share of the substrate used that was reduced” value in assay [3] is 99%.

As for `O[C@@H](CCl)c1cccc(Cl)c1` [(R)-2-chloro-1-(3-chlorophenyl)ethane-1-ol], the “enantiomeric excess of the recovered product” value in assay [3] was 100%.

(Values after patent US7575909B2, “Oxidoreductase from pichia capsulata” (IEP GmbH, priority 2003, dated 2009).)
